Publication PMC10740432, “The GDP-Mannose Dehydrogenase of Pseudomonas aeruginosa: An Old and New Target to Fight against Antibiotics Resistance of Mucoid Strains” (Antibiotics, 2023)

How the values were obtained:
[1] = target: T1, GDP-mannose dehydrogenase (GMD) (Pseudomonas aeruginosa, UniProt P11759); experiment: inhibition of NADH formation at […] nm; type: biochemical; details: read-out: Percentage of GMD Inhibition at the Final Concentration of
T1 construct: gene algD; native full-length protein purified from mucoid P. aeruginosa; 48 kDa polypeptide; 59 kDa apparent on gel filtration, monomer/active dimer; no tag
T1 sequence (P11759 whole entry): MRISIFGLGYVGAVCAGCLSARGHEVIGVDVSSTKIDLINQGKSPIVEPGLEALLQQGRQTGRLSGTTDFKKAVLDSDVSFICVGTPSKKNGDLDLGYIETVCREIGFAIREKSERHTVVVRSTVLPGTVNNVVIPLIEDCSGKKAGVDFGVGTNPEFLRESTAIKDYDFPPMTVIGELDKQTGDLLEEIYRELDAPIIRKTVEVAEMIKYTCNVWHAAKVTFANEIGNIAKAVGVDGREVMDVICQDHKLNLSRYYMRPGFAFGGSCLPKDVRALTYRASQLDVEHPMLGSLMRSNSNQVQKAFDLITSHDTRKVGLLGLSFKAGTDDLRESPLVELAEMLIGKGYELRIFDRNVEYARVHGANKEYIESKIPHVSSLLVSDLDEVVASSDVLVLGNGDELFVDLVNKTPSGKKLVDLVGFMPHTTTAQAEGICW

[2] = target: T1, GDP-mannose dehydrogenase (GMD); experiment: NADH formation at […] nm, Dixon plot; type: biochemical
[3] = tested on: Nc1nc2c(ncn2[C@@H]2O[C@H](COP(=O)(O)OP(=O)(O)O[C@H]3O[C@H](CO)[C@@H](O)[C@H](O)[C@@H]3O)[C@@H](O)[C@H]2O)c(=O)[nH]1; experiment: purified protein; details: strong-affinity site of two (negative cooperativity), strains NK 125502 and A22 alg^+, 1 mM NAD+, 10 mM MgSO4, 0.2 M glycyl-glycine pH 8.5, 37 °C
[4] = tested on: NC(=O)c1ccc[n+]([C@@H]2O[C@H](COP(=O)(O)OP(=O)(O)OC[C@H]3O[C@@H](n4cnc5c(N)ncnc54)[C@H](O)[C@@H]3O)[C@@H](O)[C@H]2O)c1; experiment: purified protein; details: co-substrate GDP-mannose, 10 mM MgSO4, 0.2 M glycyl-glycine pH 8.5, 37 °C, strain not stated, varied: cofactor

Molecule | inhibition at 500 µM [1] [%] | also measured
NC[C@H]1O[C@@H](n2cnc3c(=O)[nH]c(N)nc32)[C@H](O)[C@@H]1O [5′AG, 5′-amino-5′-deoxy-guanosine] | 64 ± 3 | –
Nc1nc2c(ncn2[C@@H]2O[C@H](CNCCCO)[C@@H](O)[C@H]2O)c(=O)[nH]1 [5′APG, 5′-(3-hydroxypropyl)-amino-5′-guanosine] | 72 ± 2 | –
C#CC(OC(C)=O)[C@H]1O[C@H](OC(=O)NS(=O)(=O)OC[C@H]2O[C@@H](n3cnc4c(=O)[nH]c(NC(C)=O)nc43)[C@@H]3OC(C)(C)O[C@@H]32)[C@@H](OC(C)=O)[C@@H](OC(C)=O)[C@@H]1OC(C)=O (stereo partly drawn) [AM5′ASG, alcynyl-6-tetra-O-acetyl-mannose-carbonyl-amino-sulfonyl-guanosine] | 90 ± 3 | –
Nc1nc2c(ncn2[C@@H]2O[C@H](CO)[C@@H](O)[C@H]2O)c(=O)[nH]1 [guanosine] | – | Ki [2]: ~40 µM
GDP-mannose dehydrogenase (GMD) (Pseudomonas aeruginosa PAO1) | – | Km [3]: 13 µM; Km [4]: 360 µM
